Results from PubChem BioAssay AID2060600 (Molecular Pharmacology Branch, DTP, NCI, 2025).

System: 996289-038-R-J1-PDC complex spheroid viability
Assay: Anticancer human tumor 996289-038-R-J1-PDC patient-derived colon adenocarcinoma cell line growth inhibition [CLK]
Settings: for IC50: curve of first compound; for viability, T/C: stronger effect = lower value; active = viability on the fitted dose curve at most 10% of control; inactive = the rest
How it was run: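 Patient-derived tumor cells grown as complex spheroids with HUVEC endothelial cells and mesenchymal stem cells, treated with drug combinations. Concentrations descend in half-log steps from near clinical Cmax, or from 10 microM if Cmax unknown.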
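Also: spheroids exposed to the agents for 7 days before readout.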

C=CC(=O)Nc1cc(Nc2nccc(-c3cn(C)c4ccccc34)n2)c(OC)cc1N(C)CCN(C)C + CN1CCN(c2cc(C(=O)Nc3cc4cc(-c5cnn(C)c5)ccc4cn3)ccn2)CC1
> 300 nM: IC50 (second compound 0.0316 µM) | IC50 (second compound 0.1 µM)
91 nM: IC50 (second compound 0.316 µM)
inactive: viability, T/C (second compound 0.0316 µM, first compound 0.000949 µM) 104% | viability, T/C (second compound 0.0316 µM, first compound 0.003 µM) 104% | viability, T/C (second compound 0.0316 µM, first compound 0.00949 µM) 105% | viability, T/C (second compound 0.0316 µM, first compound 0.03 µM) 103% | viability, T/C (second compound 0.0316 µM, first compound 0.0949 µM) 99.8% | viability, T/C (second compound 0.0316 µM, first compound 0.3 µM) 74.7% | viability, T/C (second compound 0.1 µM, first compound 0.000949 µM) 93.7% | viability, T/C (second compound 0.1 µM, first compound 0.003 µM) 93.7% | viability, T/C (second compound 0.1 µM, first compound 0.00949 µM) 91.2% | viability, T/C (second compound 0.1 µM, first compound 0.03 µM) 84.4% | viability, T/C (second compound 0.1 µM, first compound 0.0949 µM) 86% | viability, T/C (second compound 0.1 µM, first compound 0.3 µM) 65.9% | viability, T/C (second compound 0.316 µM, first compound 0.000949 µM) 74.2% | viability, T/C (second compound 0.316 µM, first compound 0.003 µM) 69% | viability, T/C (second compound 0.316 µM, first compound 0.00949 µM) 63.5% | viability, T/C (second compound 0.316 µM, first compound 0.03 µM) 56.8% | viability, T/C (second compound 0.316 µM, first compound 0.0949 µM) 53.5% | viability, T/C (second compound 0.316 µM, first compound 0.3 µM) 37.2%
active: viability, T/C (second compound 1 µM, first compound 0.000949 µM) 6.28% | viability, T/C (second compound 1 µM, first compound 0.003 µM) 6.22% | viability, T/C (second compound 1 µM, first compound 0.00949 µM) 7.21% | viability, T/C (second compound 1 µM, first compound 0.03 µM) 6.93% | viability, T/C (second compound 1 µM, first compound 0.0949 µM) 4.43% | viability, T/C (second compound 1 µM, first compound 0.3 µM) 1.67% | viability, T/C (second compound 3.16 µM, first compound 0.000949 µM) 0.79% | viability, T/C (second compound 3.16 µM, first compound 0.003 µM) 1.11% | viability, T/C (second compound 3.16 µM, first compound 0.00949 µM) 1.16% | viability, T/C (second compound 3.16 µM, first compound 0.03 µM) 1.29% | viability, T/C (second compound 3.16 µM, first compound 0.0949 µM) 0.93% | viability, T/C (second compound 3.16 µM, first compound 0.3 µM) 0.71% | viability, T/C (second compound 10 µM, first compound 0.000949 µM) 1.47% | viability, T/C (second compound 10 µM, first compound 0.003 µM) 0.58% | viability, T/C (second compound 10 µM, first compound 0.00949 µM) 0.99% | viability, T/C (second compound 10 µM, first compound 0.03 µM) 1.04% | viability, T/C (second compound 10 µM, first compound 0.0949 µM) 0.51% | viability, T/C (second compound 10 µM, first compound 0.3 µM) 1.04%
< 0.949 nM: IC50 (second compound 1 µM) | IC50 (second compound 3.16 µM) | IC50 (second compound 10 µM)

CC(Nc1ccc2c(c1)OCCn1cc(N3C(=O)OCC3C(F)F)nc1-2)C(N)=O (centres undefined) + CN1CCN(c2cc(C(=O)Nc3cc4cc(-c5cnn(C)c5)ccc4cn3)ccn2)CC1
inactive: viability, T/C (second compound 0.0316 µM, first compound 0.0316 µM) 88.1% | viability, T/C (second compound 0.0316 µM, first compound 0.1 µM) 84.9% | viability, T/C (second compound 0.0316 µM, first compound 0.316 µM) 71.8% | viability, T/C (second compound 0.0316 µM, first compound 1 µM) 60.5% | viability, T/C (second compound 0.0316 µM, first compound 3.16 µM) 52.2% | viability, T/C (second compound 0.0316 µM, first compound 10 µM) 37.2% | viability, T/C (second compound 0.1 µM, first compound 0.0316 µM) 91.5% | viability, T/C (second compound 0.1 µM, first compound 0.1 µM) 77.3% | viability, T/C (second compound 0.1 µM, first compound 0.316 µM) 62.1% | viability, T/C (second compound 0.1 µM, first compound 1 µM) 50.6% | viability, T/C (second compound 0.1 µM, first compound 3.16 µM) 41.6% | viability, T/C (second compound 0.1 µM, first compound 10 µM) 31.2% | viability, T/C (second compound 0.316 µM, first compound 0.0316 µM) 62% | viability, T/C (second compound 0.316 µM, first compound 0.1 µM) 50.9% | viability, T/C (second compound 0.316 µM, first compound 0.316 µM) 46% | viability, T/C (second compound 0.316 µM, first compound 1 µM) 35.6% | viability, T/C (second compound 0.316 µM, first compound 3.16 µM) 35.9% | viability, T/C (second compound 0.316 µM, first compound 10 µM) 21.9%
< 31.6 nM: IC50 (second compound 1 µM) | IC50 (second compound 3.16 µM) | IC50 (second compound 10 µM)
158 nM: IC50 (second compound 0.316 µM)
1100 nM: IC50 (second compound 0.1 µM)
active: viability, T/C (second compound 1 µM, first compound 0.0316 µM) 2.6% | viability, T/C (second compound 1 µM, first compound 0.1 µM) 2.53% | viability, T/C (second compound 1 µM, first compound 0.316 µM) 2.23% | viability, T/C (second compound 1 µM, first compound 1 µM) 1.58% | viability, T/C (second compound 1 µM, first compound 3.16 µM) 1.47% | viability, T/C (second compound 1 µM, first compound 10 µM) 1.4% | viability, T/C (second compound 3.16 µM, first compound 0.0316 µM) 3.59% | viability, T/C (second compound 3.16 µM, first compound 0.1 µM) 0.97% | viability, T/C (second compound 3.16 µM, first compound 0.316 µM) 1.63% | viability, T/C (second compound 3.16 µM, first compound 1 µM) 1.51% | viability, T/C (second compound 3.16 µM, first compound 3.16 µM) 1.33% | viability, T/C (second compound 3.16 µM, first compound 10 µM) 1.96% | viability, T/C (second compound 10 µM, first compound 0.0316 µM) 1.51% | viability, T/C (second compound 10 µM, first compound 0.1 µM) 0.78% | viability, T/C (second compound 10 µM, first compound 0.316 µM) 1.23% | viability, T/C (second compound 10 µM, first compound 1 µM) 0.65% | viability, T/C (second compound 10 µM, first compound 3.16 µM) 0.6% | viability, T/C (second compound 10 µM, first compound 10 µM) 0.47%
3170 nM: IC50 (second compound 0.0316 µM)
